Test results as given in US7557099B2, “Pyrrolobenzodiazepines as key intermediates in the synthesis of dimeric cytotoxic pyrrolobenzodiazepines” (Spirogen Limited, priority 2004, dated 2009).
Where two headings read alike, the source gives them in different places.

How the values were obtained:
[1] = system: K562 human chronic myeloid leukaemia cells; experiment: In vitro cytotoxicity, K562 cells, MTT assay; type: cell-based; conditions: Homo sapiens
Method: K562 human chronic myeloid leukaemia cells were maintained in RPM1 1640 medium supplemented with 10% fetal calf serum and 2 mM glutamine at 37° C. in a humidified atmosphere containing 5% CO2 and were incubated with a specified dose of drug for 1 hour or 96 hours at 37° C. in the dark. The incubation was terminated by centrifugation (5 min, 300 g) and the cells were washed once with drug-free medium. Following the appropriate drug treatment, the cells were transferred to 96-well microtiter plates (10^4 cells per well, 8 wells per sample). Plates were then kept in the dark at 37° C. in a humidified atmosphere containing 5% CO2. The assay is based on the ability of viable cells to reduce a yellow soluble tetrazolium salt, 3-(4,5-dimethylthiazol-2-yl)-2,5-diphenyl-2H-tetrazolium bromide (MTT, Aldrich-Sigma), to an insoluble purple formazan precipitate. Following incubation of the plates for 4 days (to allow control cells to increase in number by approximately 10 fold), 20 μL of MTT solution (5 mg/mL in phosphate-buffered saline) was added to each well and the plates further incubated for 5 hours. The plates were then centrifuged for 5 minutes at 300 g and the bulk of the medium pipetted from the cell pellet leaving 10-20 μL per well. DMSO (200 μL) was added to each well and the samples agitated to ensure complete mixing. The optical density was then read at a wavelength of 550 nm on a Titertek Multiscan ELISA plate reader, and a dose-response curve was constructed. For each curve, an IC50 value was read as the dose required to reduce the final optical density to 50% of the control value.

linear pBR322 DNA = experiment: DNA cross-linking, electrophoretic assay (XL50); type: biochemical; conditions: concentration giving 50% cross-linked plasmid DNA; 2 hours, 37° C., pH 7.2
Method: The extent of DNA cross-linking induced by each PBD dimer was determined using the electrophoretic assay method of Hartley, et al. (Hartley, J. A., Berardini, M. D., and Souhami, R. L. (1991) Anal. Biochem. 193, 131-134) based on the principle that, following complete denaturation of linear pBR322 DNA (˜4,300 bp) to the single-stranded (SS) form, an interstrand cross-link results in renaturation to double-stranded (DS) in a neutral gel.
Closed-circular DNA was linearized with HindIII, then dephosphorylated and finally 5′-singly end-labelled using [γ^32P]-ATP and polynucleotide kinase. Reactions containing 30-40 ng of DNA and the test compound were carried out in aqueous TEOA (25 mM triethanolamine, 1 mM EDTA, pH 7.2) buffer at 37° C. in a final volume of 50 μl for 2 hours. Reactions were terminated by addition of an equal volume of stop solution (0.6 M NaOAc, 20 mM EDTA, 100 μg/ml tRNA) followed by precipitation with ethanol. Following centrifugation, the supernatant was discarded and the pellet dried by lyophilization. Samples were re-suspended in 10 μl of strand separation buffer (30% DMSO, 1 mM EDTA, 0.04% bromophenol blue and 0.04% xylene cylanol) and denatured by heating to 90° C. for 2.5 min, followed by immersion in an ice/water bath. Control non-denatured samples were re-suspended in 10 μl of non-denaturing buffer solution (0.6% sucrose, 0.04% bromophenol blue in aqueous TAE buffer [40 mM Tris, 20 mM acetic acid, 2 mM EDTA, pH 8.1]) and loaded directly onto the gel for comparison.
Electrophoresis was carried out for 14-16 h at 40 V using a 0.8% submerged agarose gel (20×25×0.5 cm) in TAE buffer. Gels were dried under vacuum for 2 hour at 80° C. onto one layer each of Whatman 3MM and DE8I filter papers using a BioRad 583 gel dryer. Autoradiographs were obtained after exposure of Hyperfilm-MP film (Amersham plc, U.K.) to the dried gel for either 4 hour with a screen (or over night, without a screen, to obtain a sharper image). Film bands were quantitated using a BioRad GS-670 imaging laser densitometer. Percentage cross-linking was calculated by measuring the total DNA in each lane (summed density for the double-stranded [DS] and single-stranded [SS] bands) relative to the amount of cross-linked DNA (density of DS band alone). A dose-response curve was derived by plotting drug concentration against the determined percentage level of cross-linked DNA which was then analysed to determine the concentration of test compound that results in 50% cross-linked plasmid DNA (XL50).

[2] = system: approximately 60 human tumour cell lines; experiment: NCI 60 cell screen, SRB assay; type: cell-based; conditions: Homo sapiens, 48 hour continuous exposure
Method: The National Cancer Institute (NCI), Bethesda, Md., USA has available an in vitro cytotoxicity screen which consists of approximately 60 human tumour cell lines against which compounds are tested at a minimum of five concentrations each differing 10-fold. A 48 hour continuous exposure protocol is used, where cell viability or growth is estimated with an SRB protein assay.
The test compounds were evaluated against approximately 60 human tumour cell lines. The NCI screening procedures were described in detail by Monks and co-workers (Monks, A et al., Journal of the National Cancer Institute, 1991, 83, 757). Briefly, cell suspensions were diluted according to the particular cell type and the expected target cell density (5000-40,000 cells per well based on cell growth characteristics), and added by pipette (100 μL) into 96-well microtitre plates. The cells were allowed a preincubation period of 24 hours at 37° C. for stabilisation. Dilutions at twice the intended test concentration were added at time zero in 100 μL aliquots to the wells. The test compounds were evaluated at five 10-fold dilutions (10^−4, 10^−5, 10^−6, 10^−7 and 10^−[…]). The test compounds were incubated for 48 hours in 5% CO2 atmosphere and 100% humidity. The cells were then assayed using the sulphorhodamine B assay. A plate reader was used to read the optical densities and a microcomputer processed the readings into GI50 values (in Moles), which is the dosage required to limit cell growth to 50%.

[3] = 96 hr exposure, sub-table of 16e-j, read-out: IC50 96 hr exposure
[4] = 1 hr exposure, read-out: IC50 1 hr exposure

COc1ccc2c(c1)C(=O)N1CCC(OCCCCCCCCCOC3CCN4C(=O)c5cc(OC)ccc5N=C[C@@H]34)[C@@H]1C=N2 (stereo partly drawn) [Compound 16g, 1,1′-[(Nonane-1,9-diyl)dioxy]bis[(11aS)-7-methoxy-1,2,3,11a-tetrahydro-5H-pyrrolo[2,1-c][1,4]benzodiazepine-5-one]]
IC50 [1, 3]: 0.026 µM
EC50 (linear pBR322 DNA): 1.5 µM
GI50 [2]: 0.019 µM

COc1ccc2c(c1)N=C[C@H]1C(OCCCCCCCCOC3CCN4C(=O)c5ccc(OC)cc5N=C[C@@H]34)CCN1C2=O (stereo partly drawn) [Compound 9f, 1,1′-[(Octane-1,8-diyl)dioxy]bis[(11aS)-8-methoxy-1,2,3,11a-tetrahydro-5H-pyrrolo[2,1-c][1,4]benzodiazepine-5-one]]
IC50 [1, 4]: 9.72 µM
EC50 (linear pBR322 DNA): 1.8 µM
GI50 [2]: 1.17 µM

COc1ccc2c(c1)N=C[C@H]1C(OCCCCCCCCCCOC3CCN4C(=O)c5ccc(OC)cc5N=C[C@@H]34)CCN1C2=O (stereo partly drawn) [Compound 9h, 1,1′-[(Decane-1,10-diyl)dioxy]bis[(11aS)-8-methoxy-1,2,3,11a-tetrahydro-5H-pyrrolo[2,1-c][1,4]benzodiazepine-5-one]]
IC50 [1, 4]: 16.1 µM
EC50 (linear pBR322 DNA): 0.17 µM
GI50 [2]: 1.12 µM

COc1ccc2c(c1)C(=O)N1CCC(OCCCOC3CCN4C(=O)c5cc(OC)ccc5N=C[C@@H]34)[C@@H]1C=N2 (stereo partly drawn) [Compound 16a, 1,1′-[(Propane-1,3-diyl)dioxy]bis[(11aS)-7-methoxy-1,2,3,11a-tetrahydro-5H-pyrrolo[2,1-c][1,4]benzodiazepine-5-one]]
IC50 [1, 4]: 12.8 µM
EC50 (linear pBR322 DNA): 0.05 µM
GI50 [2]: 3.16 µM

COc1ccc2c(c1)C(=O)N1CCC(OCCCCCCCCCCOC3CCN4C(=O)c5cc(OC)ccc5N=C[C@@H]34)[C@@H]1C=N2 (stereo partly drawn) [Compound 16h, 1,1′-[(Decane-1,10-diyl)dioxy]bis[(11aS)-7-methoxy-1,2,3,11a-tetrahydro-5H-pyrrolo[2,1-c][1,4]benzodiazepine-5-one]]
IC50 [1, 3]: 0.352 µM
EC50 (linear pBR322 DNA): 5 µM
GI50 [2]: 0.054 µM

COc1ccc2c(c1)C(=O)N1CCC(OCCCCCCCCOC3CCN4C(=O)c5cc(OC)ccc5N=C[C@@H]34)[C@@H]1C=N2 (stereo partly drawn) [Compound 16f, 1,1′-[(Octane-1,8-diyl)dioxy]bis[(11aS)-7-methoxy-1,2,3,11a-tetrahydro-5H-pyrrolo[2,1-c][1,4]benzodiazepine-5-one]]
IC50 [1, 3]: 0.0045 µM
EC50 (linear pBR322 DNA): 1.4 µM
GI50 [2]: 0.019 µM
